Measurements taken from patent US7169773B2, “Compounds” (SmithKline Beecham Corporation, priority 2004, dated 2007).

Tests used:
[1] = target: human MC4R (Homo sapiens, UniProt P32245); assay: Reporter Gene Assay (CHO-6×CRE-luc+ reporter cell lines, luciferase); format: cell-based; settings: for Emax: 4 h, read-out: % of MSH; for Emax / % of MSH: percentage of the fold stimulation in the NDP-αMSH control (1×10^−7 M NDP-αMSH), CHO-6×CRE-luc+ cells, human MC4R; for EC50: CHO-6×CRE-luc+ reporter cells expressing human MC4R, 4 h at 37° C., luciferase activity
human MC4R, sequence (P32245 whole entry): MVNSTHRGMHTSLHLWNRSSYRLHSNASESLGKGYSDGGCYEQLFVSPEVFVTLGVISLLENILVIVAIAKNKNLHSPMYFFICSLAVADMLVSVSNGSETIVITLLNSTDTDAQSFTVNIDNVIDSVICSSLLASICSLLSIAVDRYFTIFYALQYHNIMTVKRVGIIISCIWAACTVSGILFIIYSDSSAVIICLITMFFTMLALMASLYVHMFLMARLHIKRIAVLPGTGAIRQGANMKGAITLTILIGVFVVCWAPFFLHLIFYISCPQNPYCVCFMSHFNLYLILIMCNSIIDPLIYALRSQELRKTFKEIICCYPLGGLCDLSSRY
Method: Reporter Gene Assay CHO-6×CRE-luc^+ reporter cell lines expressing human MC1R, MC3R, MC4R, and MC5R (GenBank accession numbers X65634, LO6155, S77415 and U08353) and the CHO host reporter gene cell line were propagated in complete medium in T225 flasks. Forty-eight hours prior to assay, cells were harvested with 2 ml of 0.05% trypsin, washed with complete medium and plated at a concentration of 4000 cells/well in complete medium. Sixteen hours prior to the assay, the medium was removed from the cells and replaced with 90 μl/well of serum-free DMEM/F12. At the time of the assay the compounds were added in a 10 μl volume and plates were incubated for 4 h at 37° C. in a cell culture incubator. The medium was aspirated followed by the addition of 50 μl of a 1:1 mixture of LucLiteTM and dPBS containing 1 mM CaCl2 and 1 mM MgCl2. The plates were then sealed and subjected to dark adaptation at room temperature for 10 min before luciferase activity was quantitated on a TopCountTM microplate scintillation counter (Packard) using 3 s/well count time. The NDP-αMSH and […]-5 concentration-response curve data were expressed as a percentage of the fold stimulation in the NDP-αMSH control for each receptor subtype. The control value is the average of duplicate wells treated with 1×10^-7 M NDP-αMSH.

In the case of `O=C(CN1C(=O)C(Cc2n[nH]c3ccccc23)C(=O)N(c2ccccc2)c2ccccc21)N1CCCCc2ccccc21` (racemic) [Example 1, 3-(1H-indazol-3-ylmethyl)-1-[2-oxo-2-(2,3,4,5-tetrahydro-1H-1-benzazepin-1-yl)ethyl]-5-phenyl-1H-1,5-benzodiazepine-2,4(3H,5H)-dione], the Emax [1] is reported as 60% and the EC50 [1] is reported as 309 nM.
For `Cc1cc(C)c2c(c1)N(C(=O)CN1C(=O)C(Cc3n[nH]c4ccccc34)C(=O)N(c3ccccc3)c3ccccc31)CCCC2` (racemic) [Example 3, 1-[2-(6,8-dimethyl-2,3,4,5-tetrahydro-1H-1-benzazepin-1-yl)-2-oxoethyl]-3(1H-indazol-3-ylmethyl)-5-phenyl-1H-1,5-benzodiazepine-2,4(3H,5H)-dione], the Emax [1] was 47% and the EC50 [1] was 60.3 nM.
For `COc1cccc2c1CCCCN2C(=O)CN1C(=O)C(Cc2n[nH]c3ccccc23)C(=O)N(c2ccccc2)c2ccccc21` (racemic) [Example 4, 3-(1H-indazol-3-ylmethyl)-1-[2-(6-methoxy-2,3,4,5-tetrahydro-1H-1-benzazepin-1-yl)-2-oxoethyl]-5-phenyl-1H-1,5-benzodiazepine-2,4(3H,5H)-dione], the Emax [1] was 45% and the EC50 [1] was 178 nM.
Compound `COc1ccc(N(C(=O)CN2C(=O)C(Cc3n[nH]c4ccccc34)(OC)C(=O)N(c3cccnc3)c3ccccc32)C(C)C)cc1` (racemic) [Example 8, 2-[3-(1H-indazol-3-ylmethyl)-3-methoxy-2,4-dioxo-5-pyridin-3-yl-2,3,4,5-tetrahydro-1H-1,5-benzodiazepin-1-yl]-N-isopropyl-N-(4-methoxyphenyl)acetamide] has an Emax [1] of 74% and an EC50 [1] of 251 nM.
In the case of `COc1ccc(N(C(=O)CN2C(=O)C(Cc3n[nH]c4ccccc34)(OC)C(=O)N(c3cccnc3)c3ccccc32)C(C)C)cc1` (single isomer, unassigned) [Example 9, 2-[3-(1H-indazol-3-ylmethyl)-3-methoxy-2,4-dioxo-5-pyridin-3-yl-2,3,4,5-tetrahydro-1H-1,5-benzodiazepin-1-yl]-N-isopropyl-N-(4-methoxyphenyl)acetamide], the EC50 [1] is reported as 158 nM and the “% of MSH” value [1] is reported as 68%.
In the case of `COc1ccc(N(C(=O)CN2C(=O)C(Cc3n[nH]c4ccccc34)(OC)C(=O)N(c3cccnc3)c3ccccc32)C(C)C)cc1` (single isomer, unassigned) [Example 10, 2-[3-(1H-indazol-3-ylmethyl)-3-methoxy-2,4-dioxo-5-pyridin-3-yl-2,3,4,5-tetrahydro-1H-1,5-benzodiazepin-1-yl]-N-isopropyl-N-(4-methoxyphenyl)acetamide], the EC50 [1] is reported as 200 nM and the “% of MSH” value [1] is reported as 29%.
Compound `COc1ccc2c(c1)CCCCN2C(=O)CN1C(=O)C(Cc2n[nH]c3ccccc23)C(=O)N(c2ccccc2)c2ccccc21` (centres unmarked) [Example 2, 3-(1H-indazol-3-ylmethyl)-1-[2-(7-methoxy-2,3,4,5-tetrahydro-1H-1-benzazepin-1-yl)-2-oxoethyl]-5-phenyl-1H-1,5-benzodiazepine-2,4(3H,5H)-dione] has a melting point of 215 to 230 °C, an Emax [1] of 42% and an EC50 [1] of 288 nM.
In the case of `COc1cccc2c1CCCCN2C(=O)CN1C(=O)[C@@H](Cc2n[nH]c3ccccc23)C(=O)N(c2ccccc2)c2ccccc21` [Example 5, (3R)-3-(1H-indazol-3-ylmethyl)-1-[2-(6-methoxy-2,3,4,5-tetrahydro-1H-1-benzazepin-1-yl)-2-oxoethyl]-5-phenyl-1H-1,5-benzodiazepine-2,4(3H,5H)-dione], the melting point is reported as 186 to 214 °C, the Emax [1] is reported as 44% and the EC50 [1] is reported as 282 nM.
Work on `Cc1cc(C)c2c(c1)N(C(=O)CN1C(=O)[C@@H](Cc3n[nH]c4c3CCCC4)C(=O)N(c3ccccc3)c3ccccc31)CCCC2` [Example 6, (3R)-1-[2-(6,8-dimethyl-2,3,4,5-tetrahydro-1H-1-benzazepin-1-yl)-2-oxoethyl]-5-phenyl-3-(4,5,6,7-tetrahydro-1H-indazol-3-ylmethyl)-1H-1,5-benzodiazepine-2,4(3H,5H)-dione] yielded an Emax [1] of 35% and an EC50 [1] of 257 nM.
`COc1cccc2c1CCCCN2C(=O)CN1C(=O)[C@@H](Cc2n[nH]c3c2CCCC3)C(=O)N(c2ccccc2)c2ccccc21` [Example 7, (3R)-1-[2-(6-methoxy-2,3,4,5-tetrahydro-1H-1-benzazepin-1-yl)-2-oxoethyl]-5-phenyl-3-(4,5,6,7-tetrahydro-1H-indazol-3-ylmethyl)-1H-1,5-benzodiazepine-2,4(3H,5H)-dione] showed an Emax [1] of 41% and an EC50 [1] of 158 nM.
With `COC1(Cc2n[nH]c3ccccc23)C(=O)N(CC(=O)N2CCCCc3ccccc32)c2ccccc2N(c2ccccc2)C1=O` (centres unmarked) [Example 11, 3-(1H-indazol-3-ylmethyl)-3-methoxy-1-[2-oxo-2-(2,3,4,5-tetrahydro-1H-1-benzazepin-1-yl)ethyl]-5-phenyl-1H-1,5-benzodiazepine-2,4(3H,5H)-dione] the Emax [1] was 59% and the EC50 [1] was 112 nM.
For `O=C(CN1C(=O)C(Cc2n[nH]c3cc(F)ccc23)C(=O)N(c2ccccc2)c2ccccc21)N1CCCCc2ccccc21` (centres unmarked) [Example 12, 3-[(6-fluoro-1H-indazol-3-yl)methyl]-1-[2-oxo-2-(2,3,4,5-tetrahydro-1H-1-benzazepin-1-yl)ethyl]-5-phenyl-1H-1,5-benzodiazepine-2,4(3H,5H)-dione], the Emax [1] was 52% and the EC50 [1] was 174 nM.
